Data as given in patent US20150057354A1, “METHOD OF MAINTAINING OR IMPROVING TACTICAL PERFORMANCE AND COGNITIVE FUNCTION THROUGH DIETARY SUPPLEMENTATION” (Natural Alternatives International, Inc., priority 2013, published 2015).
Like-named read-outs stand apart in the source and are kept apart here.

Key:
[1] = 30 days, 6 g per day, sustained-release tablets
From the text: (§1) Eighteen male soldiers from an elite combat unit volunteered to participate in this double-blind study. […] Screening for performance enhancing drug use and additional supplementation was accomplished via a health questionnaire completed during participant recruitment. Participants were from the same unit, but were from three different squads. Volunteers from each squad were randomly assigned to one of two groups. The randomization procedure involved that each volunteer from the same squad to be alternatively assigned to each group. […] The first group (BA; age 19.6±0.5 years; height: 1.76±0.05 m; body mass: 72.1±4.5 kg) consumed 6.0 g of β-alanine per day, while the second group (PL; age 20.2±1.0 years; height: 1.79±0.08; body mass: 76.4±6.1 kg) consumed 6 g of placebo (rice flour). During the 30-day study period all participants from all squads participated in the same advanced military training tasks that included combat skill development, physical work under pressure, navigational training, self-defense/hand-to-hand combat and conditioning.
Participants in the supplement group were provided with 2 tablets of sustained-release β-alanine at a dose of (2 g per serving) three times per day (total β-alanine intake was 6 g per day) and subjects in the placebo group were provided with an equivalent amount of rice powder. […]

[2] = for Average Sprint Time / Fatigue rate: Repeat 30-m Sprints
Description: (§2) Data collection occurred before (PRE) and following (POST) 30 days of supplementation. During each session participants performed military relevant tasks that included a 2.5 km run, a 1-min sprint, and a 50-m casualty carry. In addition, participants performed repeated 30-m sprints in combat gear (combat vest with ammunition, helmet, and assault rifle). Between each sprint soldiers were tested on marksmanship. Immediately following the final sprint and target shooting, participants performed a 2-min serial subtraction test on the firing range to assess cognitive function under stressful conditions (continuous shooting). These assessments were based upon previously published investigations examining military performance responses during stressful conditions (Nindl, Leone et al. 2002, Harman, Gutekunst et al. 2008).
(§3) Participants in the supplement group were provided with 2 tablets of sustained-release β-alanine at a dose of (2 g per serving) three times per day (total β-alanine intake was 6 g per day) and subjects in the placebo group were provided with an equivalent amount of rice powder. Participants were instructed to consume the supplement following their meals with water. […] Supplementation occurred every day over a 30-day period.

[3] = Pre to Post; p=0.844, ES=0.003
From the text: (§4) Each session required all participants to perform a 4 km run dressed in shorts, T-shirt and running shoes. Immediately following the 4 km run, participants performed five countermovement jumps.
(§5) Participants in the supplement group were provided with 2 tablets of sustained-release β-alanine at a dose of 2 g per serving three times per day (total β-alanine intake was 6 g per day) and subjects in the placebo group were provided with an equivalent amount of rice powder. […] Supplementation occurred over a 28 day period.

[4] = From the text: as §4
Targets were set at a 40-m distance from the firing line and were all headshots. Each shot that hit the target was considered accurate. Twenty targets were set up on the range. All participants were notified prior to the start of data collection which target they were required to shoot at. Immediately following the 120-m sprint, participants continued onto the shooting range and shot 5 times while standing and 5 times from a kneeling position with their assault rifle. Participants were requested to shoot rapidly and accurately. While shooting, each participant was required to handle a misfire in their weapon. The misfire was prearranged by the investigative team, which involved placing an empty bullet into weapon's magazine (weapon's ammunition storage and feeding device). This required the participant to recognize and correct the misfire and continue to deliver fire at the designated target. The designed misfire was set to increase the stress of the shooting, with the participants already fatigued from the 4 km run, jumps and sprint with full gear. The number of accurate shots and the time required to perform these shots was recorded.
as §5

[5] = for High Running Velocity (>4.4 m · sec^−1): distance run at high velocity; for Low-Moderate Running Velocity (<4.4 m · sec^−1): distance run at low to moderate velocity
From the text: Twenty male soldiers from a special operations unit of the Israel Defense Force (IDF) volunteered to participate in this study to examine the effect of 28 days of beta-alanine ingestion on physical, tactical, psychomotor and cognitive performance in military personnel. Following an explanation of all procedures, risks and benefits, each participant provided their informed consent to participate in the study. The Helsinki committee of the IDF Medical Corps approved the research protocol. […] Screening for performance enhancing drug use and additional supplementation was accomplished via a health questionnaire completed during participant recruitment. All participants were from the same unit, but were from three different squads. Volunteers from each squad were randomly assigned to one of two groups. The first group; (BA; 20.1±0.7 years; height: 1.79±0.07 m; weight: 78.3±9.7 kg) consumed 6.0 g of β-alanine per day, while the second group (PL; 20.2±1.1 years; height: 1.80±0.05; weight: 79.6±7.8 kg) consumed 6 g of placebo (rice flour). There were an equal number of participants from each squad that were randomly assigned to either BA or PL.
as §4
All participants were provided with an individual global positioning system (GPS) that they wore in a vest underneath their shirt. The GPS unit (MinimaxX, V4.3, Catapult Innovations, Victoria, Australia) was positioned in a posterior pocket on the vest situated between the participant's right and left scapula in the upper-thoracic spine region. Information on velocity patterns was recorded during the 4 km run. Peak velocity, mean velocity, distance covered running at slow-moderate speed (<4.44 m·sec-1), distance covered running at high speed (4.44+m·sec-1), and the percent of total distance run at slow-moderate and high speeds were downloaded from the GPS receiver/transmitters. Data was collected at 10 Hz and all analysis was performed with the system software provided by the manufacturer.
as §5
Data were analyzed using a 2×2 [treatment (BA, PL) X time (pretest, posttest)] mixed factorial ANOVA.

[6] = Study 1: vertical jump power (five countermovement jumps) after 4-km run; details: at Post
[7] = 30 days, 6 g per day; p=0.048
[8] = β-alanine taken as a free amino acid; some individuals; cited from earlier work
[9] = 1-min Sprint
Description: as §2
(§6) These tests simulated a rapid approach to the battlefield. […] During the run and sprint all participants were dressed in shorts, T-shirt and running shoes. Both the run and sprint were performed on an asphalt road. All participants were provided with an individual global positioning system (GPS) that they wore in a vest underneath their shirt. The GPS unit (MinimaxX, V4.3, Catapult Innovations, Victoria, Australia) was positioned in a posterior pocket on the vest situated between the participant's right and left scapula in the upper-thoracic spine region. Information on velocity patterns was recorded during the 2.5 run, as well as total distance run during the 1-min sprint. During the 2.5 km run the velocity of the run was divided into three operationally distinct thresholds and defined as low speed (2.50 m˜s^−1-3.60 m˜s^−1), moderate speed (3.61 m·s^−1-4.43 m·s^−1) or high speed (>4.44 m·sec^−1). In addition, the average velocity and average heart rate during the 2.5 km run were also downloaded from the GPS receiver/transmitters.
During the 1-min sprint peak velocity, average velocity, total distance, total distance within 90% of peak velocity, and percent decline was downloaded from the GPS receiver/transmitters. All data were collected at 10 Hz and all analyses were performed with the system software provided by the manufacturer.
as §3

[10] = four weeks of ingestion, dosages similar to the present one (Hill et al., 2007); cited from earlier work
[11] = 2.5 km run
From the text: as §1, §2, §6, §3

[12] = 4-km run, POST (28 days, 6 g per day)

NCCC(=O)O [BA, β-alanine]
adverse events [1]: No adverse events were reported | Δ time for the 50-m casualty carry vs PL ([2]; 30 days, 6 g per day, p=0.044): significantly (p=0.044) improved | serial subtraction test under stress vs placebo ([2]; 30 days, p=0.022): significantly improve performance | Average Sprint Time ([2]; POST): 8.00 ± 0.29 s | Fatigue rate ([2]; POST): 91.8 ± 3.0% | Average Sprint Time ([2]; PRE): 7.42 ± 0.24 s | Fatigue rate ([2]; PRE): 91.6 ± 4.8% | serial subtraction test, BA vs PL [3]: no significant interactions | difference between the groups in time to perform 10 shots ([4]; BA faster than PL, not statistically different): 24.8% | time to perform 10 shots ([4]; Post, PL 37.7±13.9 sec, p=0.161): 30.2 ± 5.8 s | number of shots on target ([4]; at Post, of 10 shots, 40-m targets, p=0.012 vs PL): 8.2±1.0 | % Distance run at High Running Velocity ([5]; 4-km run, POST): 25.4 ± 18.0% | % Distance run at Low to Moderate Running Velocity ([5]; 4-km run, POST): 74.3 ± 18.3% | Average Velocity [5, 12]: 4.13 ± 0.27 m · sec^−1 | Peak Velocity [5, 12]: 5.46 ± 0.26 m · sec^−1 | % Distance run at High Running Velocity ([5]; 4-km run, PRE): 29.3 ± 16.1% | % Distance run at Low to Moderate Running Velocity ([5]; 4-km run, PRE): 70.8 ± 16.2% | Average Velocity ([5]; 4-km run, PRE): 4.25 ± 0.22 m · sec^−1 | Peak Velocity ([5]; 4-km run, PRE (before supplementation), mean ± SD): 5.84 ± 0.63 m · sec^−1 | difference between BA and PL in the distance run at a high velocity ([5]; 4-km run, Post, not statistically significant): 34.9% | High Running Velocity (>4.4 m · sec^−1) ([5]; 4-km run, POST): 1009 ± 675 | High Running Velocity (>4.4 m · sec^−1) ([5]; 4-km run, PRE): 1166 ± 610 | Low-Moderate Running Velocity (<4.4 m · sec^−1) ([5]; 4-km run, POST): 2957 ± 672 | Low-Moderate Running Velocity (<4.4 m · sec^−1) ([5]; 4-km run, PRE): 2811 ± 605 | 4K Run Time ([5]; POST): 962.6 ± 65.0 s | 4K Run Time ([5]; PRE): 942.4 ± 39.3 s | vertical jump relative mean power [6]: 14.1±1.7 w·kg-1 | vertical jump relative peak power vs PL ([6]; p=0.034, ES=0.27): significantly greater | relative mean power, percent greater than PL ([6]; p=0.139, ES 0.14): 10.2% | Δ carnosine content within the gastrocnemius muscle vs PL [7]: Significant elevations | duration of flushing/tingling of the skin [8]: less than 60 minutes | Average Velocity ([9]; POST): 5.09 ± 0.36 m · s^−1 | Distance Run at 90% Peak Velocity ([9]; POST): 58.5 ± 7.7 | Fatigue rate ([9]; POST): 30.9 ± 6.7% | Peak Velocity ([9]; POST): 6.57 ± 0.18 m · s^−1 | total distance run ([9]; POST): 302.4±21.2 m | Average Velocity ([9]; PRE): 5.21 ± 0.28 m · s^−1 | Distance Run at 90% Peak Velocity ([9]; PRE): 69.5 ± 4.1 | Fatigue rate ([9]; PRE): 32.5 ± 5.5% | Peak Velocity ([9]; PRE): 6.68 ± 0.36 m · s^−1 | total distance run ([9]; PRE): 310.0±16.7 m | elevation of muscle carnosine concentrations [10]: 60% | Average Heart Rate ([11]; POST): 165.7 ± 6.1 beats · min^−1 | Average Velocity ([11]; POST): 4.09 ± 0.25 m · s^−1 | Distance Run at High Intensity ([11]; POST): 23.9 ± 20.1% | Distance Run at Low Intensity ([11]; POST): 10.7 ± 14.0% | Distance Run at Moderate Intensity ([11]; POST): 65.1 ± 14.8% | Time ([11]; POST (30 days, 6 g per day)): 629 ± 23.8 s | Average Heart Rate ([11]; PRE): 156.8 ± 15.5 beats · min^−1 | Average Velocity ([11]; PRE): 3.97 ± 0.17 m · s^−1 | Distance Run at High Intensity ([11]; PRE): 18.4 ± 12.4% | Distance Run at Low Intensity ([11]; PRE): 12.3 ± 12.0% | Distance Run at Moderate Intensity ([11]; PRE): 69.8 ± 12.1% | Time ([11]; PRE): 624 ± 22.6 s
